Assay results reported in patent US10988477B2 (Merck Patent GmbH, priority 2018, dated 2021).

Biological target: GCN2 kinase (Homo sapiens, UniProt Q9P2K8)
Assay: GCN2 enzyme inhibition assay (Transcreener ADP2 fluorescence polarization)
Format: biochemical
Conditions: Enzyme activity for compounds of Formula IV; Ki(app), 280 μM ATP, 25° C.
How it was run: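 Human GCN2 (4 nM) preincubated 10 min with compound (0–8 μM) and 200 μM (RS)7 peptide in Tris-HCl pH 7.5, NaCl, MgCl2, DTT. Reaction started with 280 μM ATP, run 1 h at 25 °C. ADP detected by Transcreener fluorescence polarization. IC50 and Ki(app) fitted by tight-binding algorithm.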

Sequence of GCN2 kinase (Q9P2K8 whole entry): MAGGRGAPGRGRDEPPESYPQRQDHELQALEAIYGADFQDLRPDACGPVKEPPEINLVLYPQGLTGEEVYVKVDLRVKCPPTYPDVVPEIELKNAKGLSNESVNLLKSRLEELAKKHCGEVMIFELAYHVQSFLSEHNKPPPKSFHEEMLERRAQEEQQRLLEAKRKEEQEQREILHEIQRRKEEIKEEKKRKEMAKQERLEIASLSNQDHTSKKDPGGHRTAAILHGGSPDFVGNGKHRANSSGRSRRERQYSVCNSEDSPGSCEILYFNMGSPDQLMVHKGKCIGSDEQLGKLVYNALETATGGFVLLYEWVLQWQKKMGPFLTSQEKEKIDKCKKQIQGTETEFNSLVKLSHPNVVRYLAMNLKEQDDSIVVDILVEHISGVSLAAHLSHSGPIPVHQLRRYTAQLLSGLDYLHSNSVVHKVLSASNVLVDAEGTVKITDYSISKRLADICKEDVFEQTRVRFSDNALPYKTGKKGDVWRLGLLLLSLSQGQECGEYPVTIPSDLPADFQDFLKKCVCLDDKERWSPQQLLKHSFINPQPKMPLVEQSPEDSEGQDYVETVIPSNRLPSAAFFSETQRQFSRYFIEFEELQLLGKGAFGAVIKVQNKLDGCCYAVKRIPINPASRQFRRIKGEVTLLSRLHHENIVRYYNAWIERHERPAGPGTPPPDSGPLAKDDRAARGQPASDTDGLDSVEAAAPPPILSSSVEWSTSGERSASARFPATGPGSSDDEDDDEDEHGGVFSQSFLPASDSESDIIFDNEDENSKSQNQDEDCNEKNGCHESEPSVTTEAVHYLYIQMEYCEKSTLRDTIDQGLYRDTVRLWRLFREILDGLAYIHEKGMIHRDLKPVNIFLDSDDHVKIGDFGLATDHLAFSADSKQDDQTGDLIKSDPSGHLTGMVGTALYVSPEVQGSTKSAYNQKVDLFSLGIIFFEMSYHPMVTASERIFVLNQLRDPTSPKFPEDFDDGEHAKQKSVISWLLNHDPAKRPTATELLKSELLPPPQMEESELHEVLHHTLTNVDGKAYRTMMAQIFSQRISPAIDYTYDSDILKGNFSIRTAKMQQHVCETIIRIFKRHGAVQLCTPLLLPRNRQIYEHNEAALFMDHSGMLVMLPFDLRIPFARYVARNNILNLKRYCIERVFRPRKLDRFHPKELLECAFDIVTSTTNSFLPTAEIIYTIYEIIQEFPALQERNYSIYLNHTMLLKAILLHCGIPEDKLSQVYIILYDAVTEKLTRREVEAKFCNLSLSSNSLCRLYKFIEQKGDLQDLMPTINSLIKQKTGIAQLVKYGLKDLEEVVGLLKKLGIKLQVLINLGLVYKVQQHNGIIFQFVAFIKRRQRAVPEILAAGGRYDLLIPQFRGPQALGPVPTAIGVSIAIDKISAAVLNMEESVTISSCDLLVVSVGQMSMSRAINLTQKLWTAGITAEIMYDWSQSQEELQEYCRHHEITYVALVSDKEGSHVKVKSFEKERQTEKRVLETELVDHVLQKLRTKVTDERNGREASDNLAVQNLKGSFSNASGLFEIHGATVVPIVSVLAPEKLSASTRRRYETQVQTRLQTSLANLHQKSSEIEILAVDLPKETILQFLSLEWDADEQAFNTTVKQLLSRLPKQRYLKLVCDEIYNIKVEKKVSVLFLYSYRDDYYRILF

Q: With `FC(F)(F)c1cn2c(-c3nccc(N4CCCC(n5cccn5)C4)n3)cnc2cn1` (stereo not shown) [IV-665, 3-(4-(3-(1H-Pyrazol-1-yl)piperidin-1-yl)pyrimidin-2-yl)-6-(trifluoromethyl)imidazo[1,2-a]pyrazine] as the molecule, how does the Ki read?
A: 0.1 to 1 µM

Q: `CC1CN(c2ccnc(-c3cnc4cnc(C(F)(F)F)cn34)n2)C(C)C(c2c[nH]c(C(F)(F)F)n2)N1` (stereo not shown) [IV-666, 3-(4-(2,5-Dimethyl-3-(2-(trifluoromethyl)-1H-imidazol-4-yl)piperazin-1-yl)pyrimidin-2-yl)-6-(trifluoromethyl)imidazo[1,2-a]pyrazine] was tested. Which Ki did it give?
A: 0.01 to 0.1 µM

Q: How did the Ki turn out when `FC(F)(F)c1cn2c(-c3nccc(N4CCCC(c5nncs5)C4)n3)cnc2cn1` (stereo not shown) [IV-671, 2-(1-(2-(6-(Trifluoromethyl)imidazo[1,2-a]pyrazin-3-yl)pyrimidin-4-yl)piperidin-3-yl)-1,3,4-thiadiazole] was run?
A: 0.1 to 1 µM

Q: How did the Ki turn out when `FC(F)(F)c1cn2c(-c3nccc(N4CC(CN5CCC5)CC(c5cn[nH]c5)C4)n3)cnc2cn1` (stereo not shown) [IV-681, 3-(4-(3-(Azetidin-1-ylmethyl)-5-(1H-pyrazol-4-yl)piperidin-1-yl)pyrimidin-2-yl)-6-(trifluoromethyl)imidazo[1,2-a]pyrazine] was run?
A: 0.01 to 0.1 µM

Q: For `CC1C(c2cn[nH]c2)CC(P(C)(C)=O)CN1c1ccnc(-c2cnc3cnc(C(F)(F)F)cn23)n1` (stereo not shown) [IV-697, Dimethyl(6-methyl-5-(1H-pyrazol-4-yl)-1-(2-(6-(trifluoromethyl)imidazo[1,2-a]pyrazin-3-yl)pyrimidin-4-yl)piperidin-3-yl)phosphine oxide], which Ki is on record?
A: 0.1 to 1 µM

Q: For `CS(=O)(=O)N1CCC2(CC1)CN(c1ccnc(-c3cnc4cnc(C(F)(F)F)cn34)n1)C2` [IV-698, 3-(4-(7-(Methylsulfonyl)-2,7-diazaspiro[3.5]nonan-2-yl)pyrimidin-2-yl)-6-(trifluoromethyl)imidazo[1,2-a]pyrazine], which Ki is on record?
A: 0.1 to 1 µM

Q: How did the Ki turn out when `CC(=O)N1CCN(c2ccnc(-c3cnc4cnc(C(N)=O)cn34)n2)CC1(C)C` [IV-699, 3-(4-(4-Acetyl-3,3-dimethylpiperazin-1-yl)pyrimidin-2-yl)imidazo[1,2-a]pyrazine-6-carboxamide] was run?
A: 0.1 to 1 µM

Q: With `CC(=O)N1CCN(c2ccc(C(F)(F)F)c(-c3cnc4cnc(C(N)=O)cn34)n2)CC1` [IV-700, 3-(6-(4-acetylpiperazin-1-yl)-3-(trifluoromethyl)pyridin-2-yl)imidazo[1,2-a]pyrazine-6-carboxamide] as the molecule, how does the Ki read?
A: 0.1 to 1 µM

Q: With `COc1cnc(N2CCN(C(C)=O)CC2)nc1-c1cnc2cnc(C(N)=O)cn12` [IV-701, 3-(2-(4-acetylpiperazin-1-yl)-5-methoxypyrimidin-4-yl)imidazo[1,2-a]pyrazine-6-carboxamide] as the molecule, how does the Ki read?
A: 0.1 to 1 µM

Q: `FC(F)(F)c1cn2c(-c3nccc(N4CCC[C@@H](c5c[nH]cn5)C4)n3)cnc2cn1` [IV-706] was tested. Which Ki did it give?
A: < 0.01 µM

Q: For `FC(F)(F)c1cn2c(-c3nccc(N4CCC[C@H](c5c[nH]cn5)C4)n3)cnc2cn1` [IV-707], which Ki is on record?
A: 0.01 to 0.1 µM

Q: With `FC(F)(F)c1cn2c(-c3nccc(N4CCCC(c5ncc[nH]5)C4)n3)cnc2cn1` (stereo not shown) [IV-708] as the molecule, how does the Ki read?
A: 0.01 to 0.1 µM

Q: With `O=C(N[C@@H]1CCCN(c2ccnc(-c3cnc4cnc(C(F)(F)F)cn34)n2)C1)c1cn[nH]c1` [IV-709] as the molecule, how does the Ki read?
A: 0.1 to 1 µM

Q: `NS(=O)(=O)c1ccc(C(=O)N[C@@H]2CCCN(c3ccnc(-c4cnc5cnc(C(F)(F)F)cn45)n3)C2)o1` [IV-710] was tested. Which Ki did it give?
A: 0.1 to 1 µM

Q: How did the Ki turn out when `FC(F)(F)c1cn2c(-c3nccc(N4CCOC(c5cccnc5)C4)n3)cnc2cn1` (stereo not shown) [IV-711] was run?
A: 0.1 to 1 µM

Q: How did the Ki turn out when `FC(F)(F)c1cn2c(-c3nccc(N4CCO[C@H](c5ccccn5)C4)n3)cnc2cn1` [IV-713] was run?
A: 0.1 to 1 µM

Q: `Cc1csc2c1CN(c1ccnc(-c3cnc4cnc(C(F)(F)F)cn34)n1)CC2` [IV-714] was tested. Which Ki did it give?
A: 0.1 to 1 µM

Q: Which Ki does the source give for `NS(=O)(=O)c1cc2c(s1)CCN(c1ccnc(-c3cnc4cnc(C(F)(F)F)cn34)n1)C2` [IV-715] here?
A: 0.1 to 1 µM

Q: Which Ki does the source give for `FC(F)(F)c1cn2c(-c3nccc(N4CCOC(c5ccccn5)C4)n3)cnc2cn1` (stereo not shown) [IV-717] here?
A: 0.1 to 1 µM

Q: With `C[C@H]1CN(c2ccnc(-c3cnc4cnc(C(F)(F)F)cn34)n2)C[C@@H](c2nc(C3CC3)no2)O1` [IV-718] as the molecule, how does the Ki read?
A: 0.1 to 1 µM

Q: Which Ki does the source give for `FC(F)(F)c1cn2c(-c3nccc(N4CCCC(c5ncccn5)C4)n3)cnc2cn1` (stereo not shown) [IV-719] here?
A: 0.1 to 1 µM

Q: With `O=C(Nc1ccncc1)[C@H]1CCCN(c2ccnc(-c3cnc4cnc(C(F)(F)F)cn34)n2)C1` [IV-720] as the molecule, how does the Ki read?
A: 0.1 to 1 µM

Q: `O=C(Nc1cn[nH]c1)[C@H]1CCCN(c2ccnc(-c3cnc4cnc(C(F)(F)F)cn34)n2)C1` [IV-721] was tested. Which Ki did it give?
A: 0.1 to 1 µM

Q: With `FC(F)(F)c1cn2c(-c3nccc(N4CCO[C@@H](c5ccccn5)C4)n3)cnc2cn1` [IV-722] as the molecule, how does the Ki read?
A: 0.1 to 1 µM

Q: `O=C(Nc1cccnc1)[C@H]1CCCN(c2ccnc(-c3cnc4cnc(C(F)(F)F)cn34)n2)C1` [IV-723] was tested. Which Ki did it give?
A: 0.1 to 1 µM

Q: Which Ki does the source give for `O=C(Nc1cn[nH]c1)[C@@H]1CCCN(c2ccnc(-c3cnc4cnc(C(F)(F)F)cn34)n2)C1` [IV-725] here?
A: > 1 µM

Q: `N#CC1CN(c2ccnc(-c3cnc4cnc(C(F)(F)F)cn34)n2)CCO1` (stereo not shown) [IV-726] was tested. Which Ki did it give?
A: > 1 µM

Q: With `CS(=O)(=O)N=S1(=O)CCN(c2ccnc(-c3cnc4cnc(C(F)(F)F)cn34)n2)CC1` [IV-727] as the molecule, how does the Ki read?
A: > 1 µM

Q: For `Cn1cc(NC(=O)[C@@H]2CCCN(c3ccnc(-c4cnc5cnc(C(F)(F)F)cn45)n3)C2)cn1` [IV-728], which Ki is on record?
A: > 1 µM

Q: Which Ki does the source give for `N=S1(=O)CCN(c2ccnc(-c3cnc4cnc(C(F)(F)F)cn34)n2)CC1` [IV-729] here?
A: > 1 µM

Q: `CC1c2ccsc2CCN1c1ccnc(-c2cnc3cnc(C(F)(F)F)cn23)n1` (stereo not shown) [IV-730] was tested. Which Ki did it give?
A: > 1 µM

Q: How did the Ki turn out when `O=C(O)C1c2sccc2CCN1c1ccnc(-c2cnc3cnc(C(F)(F)F)cn23)n1` (stereo not shown) [IV-731] was run?
A: > 1 µM

Q: `O=C(N[C@H]1CCCN(c2ccnc(-c3cnc4cnc(C(F)(F)F)cn34)n2)C1)C1CC1` [IV-732] was tested. Which Ki did it give?
A: > 1 µM

Q: With `O=C(N[C@H]1CCCN(c2ccnc(-c3cnc4cnc(C(F)(F)F)cn34)n2)C1)c1cccnc1F` [IV-734] as the molecule, how does the Ki read?
A: > 1 µM

Q: How did the Ki turn out when `NS(=O)(=O)c1ccc(C(=O)N[C@H]2CCCN(c3ccnc(-c4cnc5cnc(C(F)(F)F)cn45)n3)C2)o1` [IV-735] was run?
A: > 1 µM

Q: For `N[C@H]1CCCN(c2ccnc(-c3cnc4cnc(C(F)(F)F)cn34)n2)C1` [IV-736], which Ki is on record?
A: > 1 µM

Q: How did the Ki turn out when `O=C(N[C@H]1CCCN(c2ccnc(-c3cnc4cnc(C(F)(F)F)cn34)n2)C1)c1cc[nH]n1` [IV-737] was run?
A: > 1 µM

Q: `O=C(Nc1cccnc1)[C@@H]1CCCN(c2ccnc(-c3cnc4cnc(C(F)(F)F)cn34)n2)C1` [IV-738] was tested. Which Ki did it give?
A: > 1 µM

Q: `Cn1cc(NC(=O)[C@H]2CCCN(c3ccnc(-c4cnc5cnc(C(F)(F)F)cn45)n3)C2)cn1` [IV-739] was tested. Which Ki did it give?
A: > 1 µM

Q: How did the Ki turn out when `O=C(Nc1ccccn1)[C@H]1CCCN(c2ccnc(-c3cnc4cnc(C(F)(F)F)cn34)n2)C1` [IV-740] was run?
A: > 1 µM

Q: For `O=C(N[C@H]1CCCN(c2ccnc(-c3cnc4cnc(C(F)(F)F)cn34)n2)C1)c1ccn(C2CC2)n1` [IV-742], which Ki is on record?
A: > 1 µM

Q: `O=C(N[C@H]1CCCN(c2ccnc(-c3cnc4cnc(C(F)(F)F)cn34)n2)C1)c1ccc(F)cc1F` [IV-744] was tested. Which Ki did it give?
A: > 1 µM

Q: For `COCCn1ccc(C(=O)N[C@H]2CCCN(c3ccnc(-c4cnc5cnc(C(F)(F)F)cn45)n3)C2)n1` [IV-745], which Ki is on record?
A: > 1 µM

Q: How did the Ki turn out when `O=C(N[C@H]1CCCN(c2ccnc(-c3cnc4cnc(C(F)(F)F)cn34)n2)C1)c1ccc(F)c(F)c1` [IV-746] was run?
A: > 1 µM

Q: For `CS(C)(=O)=NCC(=O)N[C@H]1CCCN(c2ccnc(-c3cnc4cnc(C(F)(F)F)cn34)n2)C1` [IV-747], which Ki is on record?
A: > 1 µM

Q: How did the Ki turn out when `O=C(N[C@H]1CCCN(c2ccnc(-c3cnc4cnc(C(F)(F)F)cn34)n2)C1)c1ccoc1` [IV-748] was run?
A: > 1 µM
